{"source": "paper PMC10045483", "about": "“Comparative Pharmacokinetic Study of 5 Active Ingredients after Oral Administration of Zuogui Pill in Osteoporotic Rats with Different Syndrome Types” (International Journal of Analytical Chemistry, 2023)", "key": {"[1]": {"assay": "Pharmacokinetic study of 5 compounds in rat plasma after oral administration of Zuogui Pill extract (HPLC-MS/MS, noncompartmental analysis)", "type": "in vivo, Female Sprague-Dawley rats", "settings": "oral Zuogui Pill extract 1.5 mL/100 g; for Cmax / Tmax / half-life / CL/F / MRT last / MRT inf: female, Sprague-Dawley, rat, po, 1.5 mL/100 g; for Cmax / Tmax / half-life / AUC0–t / AUC0–∞: n = 6; for CL/F: n = 6, read-out: CL_F_obs (converted); for MRT last: n = 6, read-out: MRT0–t; for MRT inf: n = 6, read-out: MRT0–∞", "protocol": "Female Sprague-Dawley rats (180–220 g) were purchased from Shanghai Laboratory Animal Centre (Shanghai, China). The rats were maintained in a standard environment (22 ± 1°C, 60 ± 10% relative humidity, and a 12 h light/dark cycle) for one week to acclimate and fed water and food ad libitum. Twenty-four rats were divided randomly into […] and treated through ovary enucleation to establish the model of osteoporosis. Ten weeks after operation, osteoporosis models of kidney-yang-deficiency and kidney-yin-deficiency were established by intramuscular injection of hydrocortisone (25 mg/kg) and intragastric administration of thyroxine suspension (160 mg/kg) for 10 days, respectively. The femur of two rats from each group was then stained with hematoxylin and eosin (H&E) to assess histopathological change. Also, the validation of osteoporosis kidney-yang-deficiency and kidney-yin-deficiency models was judged by detecting the level of cyclic adenosine monophosphate (cAMP) and cyclic guanosine monophosphate (cGMP) in rat plasma. Laboratory Animal Management and Ethics Committee of Zhejiang Chinese Medical University approved all animal treatments (ZSLL-2014-48).\nOne hundred microliters of plasma was mixed with 100 μL of the IS solution, followed by 700 μL of methanol:acetonitrile (1 : 1). After 2 min of vortex mixing, the mixture was spun for 15 min at 8000 rpm and 4°C. The supernatants were collected and dried in a high-purity N2 environment. The residues were redissolved in 100 μL methanol and centrifuged for 15 min at 13000 rpm and 4°C. Finally, an aliquot of 10 μL supernatants was used to conduct the analysis.\nFour groups of rats were orally administered with Zuogui Pill extract at a dose of 1.5 mL/100 g. Then, 0.3 mL blood samples were collected from orbital veins at 0, 0.08, 0.17, 0.25, 0.5, 1, 2, 4, 6, 8, 12, and 24 h after administration, placed in an anticoagulant tube, and centrifuged for 15 min at 5000 rpm and 4°C. The plasma was prepared and stored at −20°C until analysis.\nPhoenix WinNonlin 6.4 software was used to estimate pharmacokinetic parameters using noncompartmental analysis. Furthermore, SPSS 26 software was used to compute comparisons of the pharmacokinetic data among the four groups according to a one-way ANOVA. The results are presented as mean ± SD."}, "[2]": {"assay": "Stability of analytes in rat plasma (QC samples) under storage conditions", "settings": "n = 5; for Stability, Room temperature for 4 h, Mean: 25°C; for Stability, Three freeze-thaw cycles, Mean: −20°C to 25°C", "quoted_text": "QC samples at three levels using five replicates were used to evaluate the stability under the following conditions: 4 h at room temperature (25°C), 24 h in autosampler (4°C), and three freeze-thaw cycles (−20°C to 25°C)."}, "[3]": {"settings": "osteoporosis rats (ovariectomized)"}, "[4]": {"settings": "osteoporotic rats with kidney-yang-deficiency"}, "[5]": {"settings": "osteoporotic rats with kidney-yin-deficiency"}, "[6]": {"settings": "high QC (800, 16000, 3200, 400, 40 ng/mL in the same order)"}, "[7]": {"settings": "low QC (2, 40, 8, 1, 0.1 ng/mL for chlorogenic acid, loganin, morroniside, aucubin, protocatechuic aldehyde)"}, "[8]": {"settings": "middle QC (40, 800, 160, 20, 2 ng/mL in the same order)"}}, "note": "Read-outs that look alike come from different tables or passages of the source.", "data": [{"smiles": "COC(=O)C1=CO[C@@H](O[C@@H]2O[C@H](CO)[C@@H](O)[C@H](O)[C@H]2O)[C@@H]2[C@H](C)O[C@@H](O)C[C@H]12", "note": "[Morroniside, morroniside]", "values": [{"measurement": "Cmax", "setting": "[1]; normal rats", "result": "1720 ± 410", "unit": "ng/mL"}, {"measurement": "Tmax", "setting": "[1]; normal rats", "result": "0.29 ± 0.1", "unit": "h"}, {"measurement": "half-life", "setting": "[1]; normal rats", "result": "3.66 ± 1.18", "unit": "h"}, {"measurement": "CL/F", "setting": "[1]; normal rats", "result": 49.4, "unit": "mL/min/kg"}, {"measurement": "MRT last", "setting": "[1]; normal rats", "result": "3.41 ± 0.33", "unit": "h"}, {"measurement": "MRT inf", "setting": "[1]; normal rats", "result": "3.66 ± 0.48", "unit": "h"}, {"measurement": "Cmax", "setting": "[1]; [3]", "result": "1110 ± 163", "unit": "ng/mL"}, {"measurement": "Tmax", "setting": "[1]; [3]", "result": "0.26 ± 0.02", "unit": "h"}, {"measurement": "half-life", "setting": "[1]; [3]", "result": "2.4 ± 0.51", "unit": "h"}, {"measurement": "CL/F", "setting": "[1]; [3]", "result": 59.2, "unit": "mL/min/kg"}, {"measurement": "MRT last", "setting": "[1]; [3]", "result": "4.37 ± 0.43", "unit": "h"}, {"measurement": "MRT inf", "setting": "[1]; [3]", "result": "4.51 ± 0.38", "unit": "h"}, {"measurement": "Cmax", "setting": "[1]; [4]", "result": "1450 ± 337", "unit": "ng/mL"}, {"measurement": "Tmax", "setting": "[1]; [4]", "result": "0.19 ± 0.04", "unit": "h"}, {"measurement": "half-life", "setting": "[1]; [4]", "result": "3.83 ± 0.64", "unit": "h"}, {"measurement": "CL/F", "setting": "[1]; [4]", "result": 59.4, "unit": "mL/min/kg"}, {"measurement": "MRT last", "setting": "[1]; [4]", "result": "4.68 ± 0.24", "unit": "h"}, {"measurement": "MRT inf", "setting": "[1]; [4]", "result": "5.03 ± 0.33", "unit": "h"}, {"measurement": "Cmax", "setting": "[1]; [5]", "result": "1750 ± 321", "unit": "ng/mL"}, {"measurement": "Tmax", "setting": "[1]; [5]", "result": "0.24 ± 0.03", "unit": "h"}, {"measurement": "half-life", "setting": "[1]; [5]", "result": "2.9 ± 0.65", "unit": "h"}, {"measurement": "CL/F", "setting": "[1]; [5]", "result": 28.3, "unit": "mL/min/kg"}, {"measurement": "MRT last", "setting": "[1]; [5]", "result": "5.08 ± 0.74", "unit": "h"}, {"measurement": "MRT inf", "setting": "[1]; [5]", "result": "5.21 ± 0.78", "unit": "h"}, {"measurement": "AUC0–t", "setting": "[1]; normal rats", "result": "2151.00 ± 498.88", "unit": "h∗ng/mL"}, {"measurement": "AUC0–∞", "setting": "[1]; normal rats", "result": "2171.33 ± 509.45", "unit": "h∗ng/mL"}, {"measurement": "AUC0–t", "setting": "[1]; [3]", "result": "1724.77 ± 149.05", "unit": "h∗ng/mL"}, {"measurement": "AUC0–∞", "setting": "[1]; [3]", "result": "1741.55 ± 136.08", "unit": "h∗ng/mL"}, {"measurement": "AUC0–t", "setting": "[1]; [4]", "result": "1726.42 ± 217.11", "unit": "h∗ng/mL"}, {"measurement": "AUC0–∞", "setting": "[1]; [4]", "result": "1750.35 ± 215.20", "unit": "h∗ng/mL"}, {"measurement": "AUC0–t", "setting": "[1]; [5]", "result": "3764.53 ± 842.38^∗∗ h∗ng/mL"}, {"measurement": "AUC0–∞", "setting": "[1]; [5]", "result": "3782.41 ± 832.52^∗∗ h∗ng/mL"}, {"measurement": "Stability, Room temperature for 4 h, Mean", "setting": "[2]; [6]", "result": 98.3, "unit": "%"}, {"measurement": "Stability, Room temperature for 4 h, Mean", "setting": "[2]; [7]", "result": 90.8, "unit": "%"}, {"measurement": "Stability, Room temperature for 4 h, Mean", "setting": "[2]; [8]", "result": 86.1, "unit": "%"}, {"measurement": "Stability, Autosampler at 4°C for 24 h, Mean", "setting": "[2]; [6]", "result": 95.0, "unit": "%"}, {"measurement": "Stability, Autosampler at 4°C for 24 h, Mean", "setting": "[2]; [7]", "result": 89.6, "unit": "%"}, {"measurement": "Stability, Autosampler at 4°C for 24 h, Mean", "setting": "[2]; [8]", "result": 87.6, "unit": "%"}, {"measurement": "Stability, Three freeze-thaw cycles, Mean", "setting": "[2]; [6]", "result": 89.8, "unit": "%"}, {"measurement": "Stability, Three freeze-thaw cycles, Mean", "setting": "[2]; [7]", "result": 93.0, "unit": "%"}, {"measurement": "Stability, Three freeze-thaw cycles, Mean", "setting": "[2]; [8]", "result": 91.5, "unit": "%"}]}]}
